Data from ChEMBL document CHEMBL1201862, “PubChem BioAssay data set” (2004).
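Step 1: Grow cells in 96-well plates. Step 2: Expose to compound for 48 hours at 5 concentrations. Step 3: Interpolate endpoints linearly; if unreached, use highest concentration. GI50 is the concentration that inhibits growth by half.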 Active and inactive are the calls of the source. Cut-off read from the data, not from the text of the source: active = GI50 up to about 1.1 µM and inactive = higher. Peptide text beside a SMILES is read from it. * marks the point of attachment. OSu = O=C1CCC(=O)N1O*

Columns and labels:
Test in all cases: NCI anticancer screen, dose series, 48 h
ACHN = tested on: ACHN
A498 = tested on: A498
BT-549 = tested on: BT-549
NCI/ADR-RES = tested on: NCI/ADR-RES
SF-295 = tested on: SF-295
MDA-MB-231 = tested on: MDA-MB-231
HCT-116 = tested on: HCT-116
COLO 205 = tested on: COLO 205
OVCAR-3 = tested on: OVCAR-3
SW-620 = tested on: SW-620
SN12C = tested on: SN12C
786-0 = tested on: 786-0
OVCAR-8 = tested on: OVCAR-8
HOP-92 = tested on: HOP-92
PC-3 = tested on: PC-3
U-251 = tested on: U-251
SK-MEL-2 = tested on: SK-MEL-2
OVCAR-4 = tested on: OVCAR-4
SK-MEL-5 = tested on: SK-MEL-5

Measured: GI50

O=C1/C(=C/c2cccc3ccccc23)CCc2ccc([N+](=O)[O-])cc21
inactive: ACHN 26.8 µM | A498 19.3 µM | BT-549 16.1 µM | NCI/ADR-RES 16.3 µM | SF-295 11.9 µM | MDA-MB-231 28.5 µM | HCT-116 14.5 µM | COLO 205 34 µM | OVCAR-3 3.22 µM | SW-620 9.66 µM | SN12C 28.4 µM | 786-0 23.3 µM | OVCAR-8 37.3 µM | HOP-92 23 µM | PC-3 24.5 µM | U-251 14.1 µM

CC1(CC(=O)OC(C#C[Si](C)(C)C)Cc2ccccc2)OCCO1 (configuration not stated)
inactive: ACHN > 100 µM | A498 > 100 µM | BT-549 > 100 µM | NCI/ADR-RES > 100 µM | SK-MEL-2 > 100 µM | SF-295 > 100 µM | MDA-MB-231 > 100 µM | HCT-116 > 100 µM | OVCAR-4 > 100 µM | COLO 205 > 100 µM | SW-620 > 100 µM | SN12C > 100 µM | 786-0 > 100 µM | OVCAR-8 > 100 µM | SK-MEL-5 > 100 µM | PC-3 > 100 µM | U-251 > 100 µM

O=[N+]([O-])c1ccc(NN=C2CN3CCN(C2)c2ccccc23)c([N+](=O)[O-])c1
inactive: ACHN > 100 µM | A498 > 100 µM | BT-549 > 100 µM | NCI/ADR-RES > 100 µM | SF-295 > 100 µM | MDA-MB-231 > 100 µM | HCT-116 > 100 µM | OVCAR-4 > 100 µM | COLO 205 > 100 µM | OVCAR-3 > 100 µM | SW-620 > 100 µM | SN12C > 100 µM | 786-0 > 100 µM | OVCAR-8 > 100 µM | HOP-92 85.3 µM | SK-MEL-5 > 100 µM | PC-3 > 100 µM | U-251 > 100 µM

N=c1c2ccccc2nc2oc3ccccc3n12
inactive: ACHN 30.5 µM | A498 38.7 µM | BT-549 51.2 µM | NCI/ADR-RES 31.5 µM | SK-MEL-2 37.5 µM | SF-295 > 100 µM | HCT-116 36.6 µM | OVCAR-4 29 µM | COLO 205 > 100 µM | OVCAR-3 > 10 µM | SW-620 93.5 µM | SN12C > 100 µM | 786-0 > 10 µM | OVCAR-8 37.5 µM | HOP-92 26.5 µM | SK-MEL-5 15.5 µM | PC-3 85.1 µM

COc1cc(C2SC(C)C(=O)N2c2ccc(-c3csc(NS(=O)(=O)c4ccc(Cl)c(OC)c4)n3)cc2)ccc1O (configuration not stated)
inactive: ACHN > 100 µM | A498 > 100 µM | NCI/ADR-RES > 100 µM | SK-MEL-2 48.5 µM | SF-295 > 100 µM | MDA-MB-231 > 100 µM | HCT-116 31.8 µM | OVCAR-4 26.3 µM | COLO 205 > 100 µM | OVCAR-3 56.4 µM | SW-620 31.8 µM | SN12C 20.6 µM | 786-0 67.3 µM | OVCAR-8 29.7 µM | HOP-92 24.4 µM | SK-MEL-5 > 100 µM | PC-3 > 100 µM | U-251 46.5 µM

COc1cc(OC)cc(OCc2nc3cc(C(F)(F)F)ccc3nc2-c2ccccc2)c1
inactive: ACHN > 100 µM | BT-549 > 100 µM | NCI/ADR-RES > 100 µM | SK-MEL-2 > 100 µM | SF-295 > 100 µM | MDA-MB-231 76.4 µM | HCT-116 > 100 µM | OVCAR-4 > 100 µM | COLO 205 > 100 µM | OVCAR-3 > 100 µM | SW-620 > 100 µM | SN12C > 100 µM | 786-0 > 100 µM | OVCAR-8 > 100 µM | HOP-92 > 100 µM | PC-3 > 100 µM | U-251 > 100 µM

COc1ccc2c3c1O[C@H]1C(OC)C=CC4C(C2)N(Cc2cccs2)CCC341 (some centres not stated)
inactive: ACHN > 10 µM | BT-549 40.1 µM | NCI/ADR-RES 33.7 µM | SF-295 61 µM | HCT-116 49.2 µM | OVCAR-3 45.4 µM | SW-620 > 100 µM | SN12C > 100 µM | 786-0 > 100 µM | OVCAR-8 77.4 µM | HOP-92 > 100 µM

O=P(O)(O)C(N=C(Nc1ccccc1)Nc1ccccc1)P(=O)(O)O
inactive: ACHN > 100 µM | BT-549 > 100 µM | NCI/ADR-RES > 100 µM | SF-295 > 100 µM | MDA-MB-231 > 100 µM | HCT-116 > 100 µM | COLO 205 > 100 µM | OVCAR-3 > 100 µM | 786-0 > 100 µM | OVCAR-8 > 100 µM | SK-MEL-5 > 100 µM | PC-3 > 100 µM

COC(=O)c1ccccc1C1CN=NC12Cc1ccccc1C2=O (configuration not stated)
inactive: ACHN > 100 µM | BT-549 49.2 µM | NCI/ADR-RES 46.8 µM | SK-MEL-2 > 100 µM | SF-295 > 100 µM | MDA-MB-231 78 µM | HCT-116 > 100 µM | OVCAR-4 52.4 µM | COLO 205 > 100 µM | OVCAR-3 40.5 µM | SW-620 > 100 µM | SN12C > 100 µM | 786-0 > 100 µM | OVCAR-8 59.6 µM | HOP-92 34 µM | SK-MEL-5 42.4 µM | PC-3 34 µM | U-251 > 100 µM

CCN(C(=O)N[C@@H](Cc1ccccc1)C(=O)N[C@@H](CC(C)C)C(=O)NC)c1ccccc1
inactive: ACHN > 100 µM | BT-549 > 100 µM | NCI/ADR-RES > 100 µM | SK-MEL-2 > 100 µM | SF-295 > 100 µM | MDA-MB-231 > 100 µM | HCT-116 > 100 µM | OVCAR-4 > 100 µM | COLO 205 > 100 µM | OVCAR-3 > 100 µM | SW-620 > 100 µM | SN12C > 100 µM | 786-0 > 100 µM | OVCAR-8 > 100 µM | HOP-92 > 100 µM | SK-MEL-5 > 100 µM | PC-3 > 100 µM | U-251 > 100 µM

COC1CC(N)C(O)C(C)O1 (configuration not stated)
inactive: ACHN > 100 µM | A498 > 100 µM | BT-549 > 100 µM | NCI/ADR-RES > 100 µM | SF-295 > 100 µM | MDA-MB-231 > 100 µM | HCT-116 > 100 µM | OVCAR-4 > 100 µM | COLO 205 > 100 µM | OVCAR-3 > 100 µM | SW-620 > 100 µM | SN12C > 100 µM | 786-0 > 100 µM | OVCAR-8 > 100 µM | HOP-92 > 100 µM | SK-MEL-5 > 100 µM | PC-3 > 100 µM | U-251 > 100 µM

O=C(NC(Cc1c[nH]c2ccccc12)C(=O)O)/C(=C/c1ccccc1O)NC(=O)c1ccccc1 (configuration not stated)
inactive: ACHN 19.2 µM | A498 > 100 µM | BT-549 18.4 µM | NCI/ADR-RES 13.9 µM | SF-295 19.8 µM | MDA-MB-231 21 µM | HCT-116 42.6 µM | OVCAR-4 57.5 µM | COLO 205 > 100 µM | SW-620 > 100 µM | SN12C 24.7 µM | 786-0 18.6 µM | OVCAR-8 15.5 µM | HOP-92 14.5 µM | SK-MEL-5 > 100 µM | U-251 39.1 µM

CC1(c2nc3cc(Cl)c(Cl)cc3[nH]2)CCC(C(=O)O)C(C)(C)O1 (configuration not stated)
inactive: ACHN > 100 µM | BT-549 > 100 µM | NCI/ADR-RES > 100 µM | SK-MEL-2 > 100 µM | SF-295 > 100 µM | MDA-MB-231 > 100 µM | HCT-116 > 100 µM | OVCAR-4 78.9 µM | COLO 205 > 100 µM | OVCAR-3 > 100 µM | SW-620 > 100 µM | SN12C > 100 µM | 786-0 > 100 µM | OVCAR-8 > 100 µM | HOP-92 > 100 µM | SK-MEL-5 > 100 µM | PC-3 > 100 µM | U-251 > 100 µM

CN(/N=C/C=N/N(C)C1=NCCCN1)C1=NCCCN1
inactive: ACHN > 100 µM | BT-549 > 100 µM | NCI/ADR-RES > 100 µM | SF-295 > 100 µM | MDA-MB-231 > 100 µM | HCT-116 > 100 µM | OVCAR-4 > 100 µM | COLO 205 > 100 µM | OVCAR-3 > 100 µM | SW-620 > 100 µM | SN12C > 100 µM | 786-0 > 100 µM | OVCAR-8 > 100 µM | HOP-92 > 100 µM | SK-MEL-5 > 100 µM | PC-3 > 100 µM | U-251 > 100 µM

Cc1ccc(S(=O)(=O)NC(=O)Nc2cccc(S(N)(=O)=O)c2)cc1
inactive: ACHN > 100 µM | A498 > 100 µM | NCI/ADR-RES > 100 µM | SK-MEL-2 > 100 µM | SF-295 > 100 µM | MDA-MB-231 > 100 µM | HCT-116 > 100 µM | OVCAR-4 > 100 µM | COLO 205 > 100 µM | OVCAR-3 > 100 µM | SW-620 > 100 µM | 786-0 > 100 µM | HOP-92 > 100 µM | SK-MEL-5 > 100 µM | PC-3 > 100 µM | U-251 > 100 µM

NCCCCC(NC(=O)C(N)Cc1ccc(O)cc1)C(=O)NC(Cc1ccc(O)cc1)C(=O)NC(CCCCN)C(=O)ON1C(=O)CCC1=O (configuration not stated) (H-YKYK-OSu; configuration not given here)
inactive: ACHN > 100 µM | A498 > 100 µM | BT-549 > 100 µM | SK-MEL-2 > 100 µM | MDA-MB-231 > 100 µM | HCT-116 > 100 µM | COLO 205 > 100 µM | SW-620 > 100 µM | SN12C > 100 µM | 786-0 > 100 µM | OVCAR-8 > 100 µM | HOP-92 > 100 µM | SK-MEL-5 > 100 µM | PC-3 > 100 µM | U-251 > 100 µM
